Tested on: Endogenous Huntingtin Protein
Assay: Endogenous Huntingtin Protein Assay (ELISA-based Meso Scale Discovery electrochemiluminescence)
Format: cell-based
Conditions: MSD electrochemiluminescence, Table 1
How it was run: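 Huntingtin was captured overnight at 4 °C on plates coated with 1 μg/mL MW1 (polyQ-expanded) or MAB2166 antibody and BSA-blocked. Detection used a rabbit monoclonal and then a SULFO-TAG goat anti-rabbit antibody (0.25 μg/mL, 1 h each, room temperature). Signal was read by electrochemiluminescence.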

In the case of `Oc1cc(-c2c[nH]nc2F)ccc1-c1cnc(N2CC[C@H]3NCC[C@H]3C2)nn1` [Cpd 150, 5-(3-fluoro-1H-pyrazol-4-yl)-2-{3-[(3aS,7aR)-octahydro-5H-pyrrolo[3,2-c]pyridin-5-yl]-1,2,4-triazin-6-yl}phenol], the IC50 is reported as no more than 100 nM.
With `Cc1nnc(-c2ccc(-c3cnc(N(C)C4CC(C)(C)NC(C)(C)C4)nn3)c(O)c2)o1` [Cpd 81, 5-(5-methyl-1,3,4-oxadiazol-2-yl)-2-{3-[methyl(2,2,6,6-tetramethylpiperidin-4-yl)amino]-1,2,4-triazin-6-yl}phenol] the IC50 was no more than 100 nM.
Work on “5-(5-fluoro-1H-pyrazol-4-yl)-2-{6-[methyl(2,2,6,6-tetramethylpiperidin-4-yl)amino]-1,2,4-triazin-3-yl}phenol [Cpd 191]” yielded an IC50 of no more than 100 nM.
In the case of `Oc1cc(-c2cn[nH]c2)ccc1-c1cnc(N2CCC(NC3C4CC5CC(C4)CC3C5)C2)nn1` (stereo not drawn) [Cpd 159, 2-(3-{3-[(adamantan-2-yl)amino]pyrrolidin-1-yl}-1,2,4-triazin-6-yl)-5-(1H-pyrazol-4-yl)phenol], the IC50 is reported as 1000 to 3000 nM.
`CN(c1cnc(-c2ccc(-c3ccncn3)cc2O)nn1)C1CC(C)(C)NC(C)(C)C1` [Cpd 411, 2-{6-[methyl(2,2,6,6-tetramethylpiperidin-4-yl)amino]-1,2,4-triazin-3-yl}-5-(pyrimidin-4-yl)phenol] gave an IC50 of no more than 100 nM.
`CN(c1ncc(-c2ccc(-c3ccncc3)cc2O)nn1)C1CC(C)(C)NC(C)(C)C1` [Cpd 8, 2-{3-[methyl(2,2,6,6-tetramethylpiperidin-4-yl)amino]-1,2,4-triazin-6-yl}-5-(pyridin-4-yl)phenol] gave an IC50 of no more than 100 nM.
Compound `CC1(NCC2CCN(c3ncc(-c4ccc(-c5cn[nH]c5)cc4O)nn3)C2)CCOCC1` (stereo not drawn) [Cpd 391, 2-[3-(3-{[(4-methyloxan-4-yl)amino]methyl}pyrrolidin-1-yl)-1,2,4-triazin-6-yl]-5-(1H-pyrazol-4-yl)phenol] has an IC50 of no more than 100 nM.
`CC(C)(C)N[C@@H]1CC[C@@H]2CN(c3ncc(-c4ccc(-c5cn[nH]c5)cc4O)nn3)C[C@@H]21` [Cpd 193, 2-{3-[(3aR,4R,6aS)-4-(tert-butylamino)hexahydrocyclopenta[c]pyrrol-2(1H)-yl]-1,2,4-triazin-6-yl}-5-(1H-pyrazol-4-yl)phenol] was tested, and the IC50 was 1000 to 3000 nM.
In the case of `CC(C)(C)NC1CCN(c2cnc(-c3ccc(-c4cn[nH]c4)cc3O)nn2)C1` (stereo not drawn) [Cpd 363, 2-{6-[3-(tert-butylamino)pyrrolidin-l-yl]-1,2,4-triazin-3-yl}-5-(1H-pyrazol-4-yl)phenol], the IC50 is reported as no more than 100 nM.
In the case of `CC(C)NC1CCN(c2ncc(-c3ccc(-c4cn[nH]c4)cc3O)nn2)C1` (stereo not drawn) [Cpd 148, 2-(3-{3-[(propan-2-yl)amino]pyrrolidin-1-yl}-1,2,4-triazin-6-yl)-5-(1H-pyrazol-4-yl)phenol], the IC50 is reported as no more than 100 nM.
In the case of `CN1CCC(Nc2ncc(-c3ccc(-c4cn[nH]c4)cc3O)nn2)CC1` [Cpd 52, 2-{3-[(1-methylpiperidin-4-yl)amino]-1,2,4-triazin-6-yl}-5-(1H-pyrazol-4-yl)phenol], the IC50 is reported as 100 to 500 nM.
`CC(C)(C)NC1CCN(c2ncc(-c3ccc(-c4c[nH]nc4Cl)cc3O)nn2)C1` (stereo not drawn) [Cpd 365, 2-{3-[3-(tert-butylamino)pyrrolidin-l-yl]-1,2,4-triazin-6-yl}-5-(3-chloro-1H-pyrazol-4-yl)phenol] was tested, and the IC50 was no more than 100 nM.
For `CN(c1ncc(-c2ccc(-c3cnco3)cc2O)nn1)C1CC(C)(C)NC(C)(C)C1` [Cpd 91, 2-{3-[methyl(2,2,6,6-tetramethylpiperidin-4-yl)amino]-1,2,4-triazin-6-yl}-5-(1,3-oxazol-5-yl)phenol], the IC50 was no more than 100 nM.
With `COc1cnc(-c2ccc(-c3cnc(N(C)C4CC(C)(C)NC(C)(C)C4)nn3)c(O)c2)nn1` [Cpd 144, 5-(6-methoxy-1,2,4-triazin-3-yl)-2-{3-[methyl(2,2,6,6-tetramethylpiperidin-4-yl)amino]-1,2,4-triazin-6-yl}phenol] the IC50 was no more than 100 nM.
Compound `CNC1CCN(c2ncc(-c3ccc(-c4cnn(C)c4)cc3O)nn2)C1` (stereo not drawn) [Cpd 205, 2-{3-[3-(methylamino)pyrrolidin-l-yl]-1,2,4-triazin-6-yl}-5-(1-methyl-1H-pyrazol-4-yl)phenol] has an IC50 of no more than 100 nM.
With `Oc1cc(-c2cn[nH]c2)ccc1-c1cnc(N2CCC(CNCc3ccccn3)C2)nn1` (stereo not drawn) [Cpd 388, 5-(1H-pyrazol-4-yl)-2-{3-[-({[(pyridin-2-yl)methyl]amino}methyl)pyrrolidin-1-yl]-1,2,4-triazin-6-yl}phenol] the IC50 was no more than 100 nM.
For `Cn1nnc(-c2ccc(-c3cnc(NC4CC(C)(C)NC(C)(C)C4)nn3)c(O)c2)n1` [Cpd 267, 5-(2-methyl-2H-tetrazol-5-yl)-2-{3-[(2,2,6,6-tetramethylpiperidin-4-yl)amino]-1,2,4-triazin-6-yl}phenol], the IC50 was no more than 100 nM.
Compound `CNc1cc(-c2ccc(-c3cnc(N4CCC(NC)C4)nn3)c(O)c2)ncn1` (stereo not drawn) [Cpd 380, 5-[6-(methylamino)pyrimidin-4-yl]-2-{3-[3-(methylamino)pyrrolidin-1-yl]-1,2,4-triazin-6-yl}phenol] has an IC50 of no more than 100 nM.
Work on `CN(c1ncc(-c2ccc(-c3cc[nH]n3)cc2O)nn1)C1CC(C)(C)NC(C)(C)C1` [Cpd 111, 2-{3-[methyl(2,2,6,6-tetramethylpiperidin-4-yl)amino]-1,2,4-triazin-6-yl}-5-(1H-pyrazol-3-yl)phenol] yielded an IC50 of no more than 100 nM.
With `CN(c1ncc(-c2ccc(-n3ncc([N+](=O)[O-])n3)cc2O)nn1)C1CC(C)(C)NC(C)(C)C1` [Cpd 99, 2-{3-[methyl(2,2,6,6-tetramethylpiperidin-4-yl)amino]-1,2,4-triazin-6-yl}-5-(4-nitro-2H-1,2,3-triazol-2-yl)phenol] the IC50 was no more than 100 nM.
With `Cc1nc2c(C)cc(-c3ccc(-c4cnc(N(C)C5CC(C)(C)NC(C)(C)C5)nn4)c(O)c3)nc2o1` [Cpd 169, 5-(2,7-dimethyl[1,3]oxazolo[5,4-b]pyridin-5-yl)-2-{3-[methyl(2,2,6,6-tetramethylpiperidin-4-yl)amino]-1,2,4-triazin-6-yl}phenol] the IC50 was no more than 100 nM.
Compound `CN(c1ncc(-c2ccc(-c3ccc(O)nn3)cc2O)nn1)C1CC(C)(C)NC(C)(C)C1` [Cpd 134, 6-(3-hydroxy-4-{3-[methyl(2,2,6,6-tetramethylpiperidin-4-yl)amino]-1,2,4-triazin-6-yl}phenyl)pyridazin-3-ol] has an IC50 of no more than 100 nM.
`CC1(C)CC(Oc2ncc(-c3ccc(-n4nccn4)cc3O)nn2)CC(C)(C)N1` [Cpd 122, 2-{3-[(2,2,6,6-tetramethylpiperidin-4-yl)oxy]-1,2,4-triazin-6-yl}-5-(2H-1,2,3-triazol-2-yl)phenol] showed an IC50 of 100 to 500 nM.
`CN1CCC2(CC1)CN(c1ncc(-c3ccc(-c4ncns4)cc3O)nn1)C2` [Cpd 272, 2-[3-(7-methyl-2,7-diazaspiro[3.5]nonan-2-yl)-1,2,4-triazin-6-yl]-5-(1,2,4-thiadiazol-5-yl)phenol] was tested, and the IC50 was 100 to 500 nM.
`CN(c1ncc(-c2ccc(-c3ccc4c(nnn4C)n3)cc2O)nn1)C1CC(C)(C)NC(C)(C)C1` [Cpd 186, 2-{3-[methyl(2,2,6,6-tetramethylpiperidin-4-yl)amino]-1,2,4-triazin-6-yl}-5-(1-methyl-1H-[1,2,3]triazolo[4,5-b]pyridin-5-yl)phenol] gave an IC50 of no more than 100 nM.
`Cn1cc(-c2ccc(-c3cnc(N4CC[C@@H](NC5CCC5)C4)nn3)c(O)c2)cn1` [Cpd 406, 2-{3-[(3R)-3-(cyclobutylamino)pyrrolidin-1-yl]-1,2,4-triazin-6-yl}-5-(1-methyl-1H-pyrazol-4-yl)phenol] gave an IC50 of no more than 100 nM.
Work on “2-{3-{[(2S)-2-aminopropyl](methyl)amino}-1,2,4-triazin-6-yl)-5-(1H-pyrazol-4-yl)phenol [Cpd 190]” yielded an IC50 of no more than 100 nM.
